In patent US20250346943A1, “DEGRADER COMPOUNDS OF QSOX1 mRNA” (UNIVERSITY OF FLORIDA RESEARCH FOUNDATION, INCORPORATED, priority 2022, published 2025):

What was measured:
[1] = system: DNA and proteins in MDA-MB-231 cells; assay: Cross-linking to RNA, DNA and proteins in live cells with clickable TAMRA azide; format: cell-based, human; details: 16 h, TAMRA imaging
Procedure: Cross-linking to RNA, DNA, and Proteins in Live Cells with Clickable TAMRA Azide. MDA-MB-231 cells were seeded in 100 mm dishes and allowed to reach ˜80% confluency. The cells were then treated with […] of compound in growth medium and incubated for 16 h. Cells were washed with 1×DPBS and irradiated with UV light for 10 min. Total RNA was harvested using a Zymo Quick-RNA Miniprep Kit per the manufacturer's protocol with DNase and proteinase treatment. Total DNA was harvested using a Zymo Quick-DNA Miniprep Kit per the manufacturer's protocol with RNase and proteinase treatment. Total protein was harvested by using Mammalian Protein Extraction Reagent (M-PER, Thermo Scientific) per the manufacturer's protocol with RNase and DNase treatment. Each sample (4 μg for RNA or DNA, 25 μg for proteins) was then incubated in a “click reaction mixture” with TAMRA azide as described in In Vitro Screening of Functionalized Compounds with Clickable TAMRA Azide. DNA and RNA samples were separated by using a 1.0% (w/v) and 1.5% (w/v) agarose gel in TBE buffer, respectively. Protein samples were loaded to 10% SDS-polyacrylamide gel. All samples were first imaged with TAMRA channel by using a Typhoon FLA 9500 variable mode imager (GE Healthcare Life Sciences). […]

[2] = system: proteins of MDA-MB-231 cells (human proteome); assay: Proteomics analysis of proteins cross-linked in MDA-MB-231 cells; format: cell-based; details: of the 3,158 proteins detectable before pull-down
Procedure: Proteomic Sample Preparation and Analysis. MDA-MB-231 cells were seeded in 60 mm dishes and allowed to reach ˜80% confluency. The cells were then treated with […] of compound in growth medium and incubated for 16 h. Cells were washed with 1×DPBS and irradiated with UV light for 10 min. For each condition, two biological replicates were prepared, and each biological replicate was split into three technical replicates. […]
Pulled-down proteins were released from beads by resuspending in 6 M urea/1×PBS (0.5 mL) supplemented with 10 mM of TCEP at room temperature for 30 min. […] To the samples was added 1 volume of isopropanol containing 1% (v/v) trifluoroacetic acid, followed by a styrenedivinylbenzene reverse-phase sulfonate (SDB-RPS) StageTip 12 Peptides were resuspended in 0.1% (v/v) formic acid (FA) in water and analyzed using Proxeon EASY-nLC 1200 nano-UHPLC coupled to QExactive HF-X Quadrupole-Orbitrap mass spectrometer (Thermo Scientific). […]
The MS data were analyzed with MaxQuant13 (V1.6.1.0) and searched against the human proteome (Uniprot) and a common list of contaminants included in MaxQuant. […] The minimum peptide length was set to six amino acids and peptide re-quantification was enabled with the minimal number of peptides per protein set to 2. […]

For `C#CCCC1(CCC(=O)N(C)[C@H]2CC[C@@H](c3ccc(Cl)c(Cl)c3)c3ccccc32)N=N1` [Compound F1], the “enrichment of protein or DNA targets compared to the control probe” value [1] was “No significant enrichment” and the “proteins selectively pulled-down (not pulled-down by the control probe)” value [2] was 79 proteins.
